We go through 1 compound from publication PMC11968281, “eIF3d and eIF4G2 mediate an alternative mechanism of cap-dependent but eIF4E-independent translation initiation” (The Journal of Biological Chemistry, 2025).

The test concerns the target T1, eIF3d and eIF4G2 complex (Homo sapiens, UniProt O15371).
T1 construct: both recombinant from E. coli, 6xHis tags cut by TEV; full-length human eIF4G2; with Eukaryotic translation initiation factor 4 gamma 2
Description: fluorescence anisotropy competition with fluorescein-labelled m7G-capped […]'UTR RNA. Format: binding. The settings on record: 20 mM Hepes-KOH pH 7.5, 100 mM KCl, 1 mM MgCl2, 25 C, cap analog competing with 10 nM capped CD101, ITGAE or ACTB RNA, m7GDP concentration not given, ligand site assigned to the eIF3d c.

T1 sequence (O15371 whole entry): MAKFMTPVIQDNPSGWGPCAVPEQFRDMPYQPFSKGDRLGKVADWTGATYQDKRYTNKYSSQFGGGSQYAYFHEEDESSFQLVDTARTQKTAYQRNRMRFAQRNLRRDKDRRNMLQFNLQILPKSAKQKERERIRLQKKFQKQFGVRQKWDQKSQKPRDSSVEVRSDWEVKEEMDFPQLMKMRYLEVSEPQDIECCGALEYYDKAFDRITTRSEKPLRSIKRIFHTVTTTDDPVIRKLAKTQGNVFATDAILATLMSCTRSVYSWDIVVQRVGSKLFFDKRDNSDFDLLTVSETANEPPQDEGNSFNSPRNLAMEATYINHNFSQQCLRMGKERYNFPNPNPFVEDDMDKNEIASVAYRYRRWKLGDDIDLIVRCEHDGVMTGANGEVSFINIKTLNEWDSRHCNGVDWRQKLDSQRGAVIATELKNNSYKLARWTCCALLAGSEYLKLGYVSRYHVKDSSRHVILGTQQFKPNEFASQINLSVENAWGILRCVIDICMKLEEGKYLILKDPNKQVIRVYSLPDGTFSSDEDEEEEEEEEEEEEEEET
T1 sequence (P78344 whole entry partner): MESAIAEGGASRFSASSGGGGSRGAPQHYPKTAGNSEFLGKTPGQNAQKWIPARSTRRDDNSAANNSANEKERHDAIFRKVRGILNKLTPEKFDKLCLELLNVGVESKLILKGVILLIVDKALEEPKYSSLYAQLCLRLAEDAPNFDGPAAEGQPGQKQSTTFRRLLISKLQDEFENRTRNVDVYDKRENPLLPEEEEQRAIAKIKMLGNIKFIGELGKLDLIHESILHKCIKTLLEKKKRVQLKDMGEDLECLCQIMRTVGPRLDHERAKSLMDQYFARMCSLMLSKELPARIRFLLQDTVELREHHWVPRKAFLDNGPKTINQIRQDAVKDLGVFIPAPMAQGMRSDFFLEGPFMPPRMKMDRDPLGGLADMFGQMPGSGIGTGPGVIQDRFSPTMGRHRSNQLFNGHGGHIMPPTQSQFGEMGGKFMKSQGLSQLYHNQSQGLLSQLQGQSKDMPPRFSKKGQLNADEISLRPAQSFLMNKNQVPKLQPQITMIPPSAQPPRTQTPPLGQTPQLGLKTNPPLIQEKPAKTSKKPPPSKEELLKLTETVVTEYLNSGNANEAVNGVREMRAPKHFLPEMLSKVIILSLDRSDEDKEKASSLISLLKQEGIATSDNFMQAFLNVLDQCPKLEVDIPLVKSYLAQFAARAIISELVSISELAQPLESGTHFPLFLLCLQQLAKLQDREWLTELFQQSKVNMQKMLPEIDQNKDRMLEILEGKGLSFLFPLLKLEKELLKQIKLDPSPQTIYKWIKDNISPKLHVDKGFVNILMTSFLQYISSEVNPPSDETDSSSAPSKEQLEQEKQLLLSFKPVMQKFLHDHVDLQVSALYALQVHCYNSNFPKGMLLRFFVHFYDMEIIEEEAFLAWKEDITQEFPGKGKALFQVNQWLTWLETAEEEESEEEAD

In the case of `C[n+]1cn([C@@H]2O[C@H](COP(=O)(O)OP(=O)(O)O)[C@@H](O)[C@H]2O)c2nc(N)[nH]c(=O)c21` [m^7GDP], the “fluorescence anisotropy competition with fluorescein-labelled m7G-capped 5'UTR R” value is “reduction in the binding affinity of the eIF3d/eIF4G2 complex to the m^7G cap was also observed”.
